Experimental findings from ChEMBL document CHEMBL3507680, “University of Dundee, Gates Library screen for HepG2 cell viability” are described below.

This data set in a line: Human HepG2 cell viability assay in 384 well format. The class given is toxicity, cell-based. To be noted: HepG2 cells, read-out: Inhibition. Also noted: dose 125 nL, time 70.5 hour; concentration not given beside the values.
With `O=C1CO[C@H]2CN(S(=O)(=O)c3ccccc3)C[C@H]2N1Cc1ccccc1`, the cytotoxicity at 70.5 h was -9.3%.
Take `Cc1ccccc1CN1C[C@@H]2OCC(=O)N(CC(N)=O)[C@@H]2C1`: the cytotoxicity at 70.5 h was -0.694%.
As to `Cn1ccnc1CN1C[C@@H](F)[C@@H](OCc2nc3cnccc3[nH]2)C1`, the cytotoxicity at 70.5 h is 13.1%.
Regarding `CN(C)[C@@H]1CO[C@H](CNC(=O)CC(C)(C)C)[C@H]1O`, the cytotoxicity at 70.5 h was -0.485%.
Take `O=C(NC[C@H]1OC[C@@H](NC2CCC(F)(F)CC2)[C@@H]1O)N1CCOCC1`: the cytotoxicity at 70.5 h was -6.74%.
As for `O=C1N(Cc2ccccn2)C[C@H]2CN(S(=O)(=O)c3ccccc3)CCN12`, the cytotoxicity at 70.5 h is -0.174%.
As for `Cc1nc(C)c(CN2CCOC[C@H](Oc3ccc(S(C)(=O)=O)cc3)C2)s1`, the cytotoxicity at 70.5 h turned out to be 0.478%.
With `Cc1ccc(CN2CC[C@H](c3nnc(COc4ccc(F)cc4)o3)C2)o1`, the cytotoxicity at 70.5 h is -6.96%.
`O=C(NCc1ccccc1)[C@@H]1Cc2[nH]cnc2CN1CC1CC1`: the cytotoxicity at 70.5 h is -3.43%.
Turning to `CN1C[C@@H](NC(=O)c2ccccc2)C[C@H]1c1nc(-c2cnccn2)no1`, the cytotoxicity at 70.5 h is 10.6%.
As for `Cc1noc([C@@H]2C[C@H](NC(=O)C3CCCCC3)CN2C)n1`, the cytotoxicity at 70.5 h was found to be 0.213%.
For `COCC(=O)Nc1ccc(-c2noc([C@@H]3CCCN3CC(C)C)n2)cn1`, the cytotoxicity at 70.5 h was determined as 10.2%.
In the case of `CC(C)N1CC[C@H](c2nc3ccc(C(F)(F)F)cc3[nH]2)C1` it was -5.84%; in that of `COc1ccc2[nH]c(C[C@@H]3C[C@@H](C(C)C)[C@H](CN(C)C)C=C3C)nc2c1`, -3.19%; in that of `CN1CCC(N[C@@H]2CO[C@H](CNC(=O)C3CCCC3)[C@H]2O)CC1`, -3.54%.
With `CC(=O)N1CCN2C(=O)N(Cc3ccc(F)cc3)C[C@H]2C1`, the cytotoxicity at 70.5 h is -13%.
In the case of `O=C(c1ccno1)N1CCN2C(=O)N(Cc3ccc(F)cc3)C[C@H]2C1` it was -8.27%; in that of `O=C1N(Cc2ccccn2)C[C@H]2CN(C3CCC3)CCN12`, 2.38%; in that of `O=S(=O)(c1ccc(F)cc1)N1CCOC[C@H](Oc2cnccn2)C1`, 12.5%.
In the case of `CO[C@H]1COCCN(C(=O)c2ccno2)C1`, the cytotoxicity at 70.5 h is -1.71%.
`CO[C@H]1COCCN(C(=O)c2cc(C)oc2C(F)(F)F)C1`: the cytotoxicity at 70.5 h was -3.96%.
For `CNC(=O)[C@@H](C1CCCCC1)N1CCC[C@H]1C(=O)NC1CC1`, the cytotoxicity at 70.5 h was -20.1%.
For the compound `CCNC(=O)O[C@H]1COCCN(c2nc3ccccc3s2)C1`, the cytotoxicity at 70.5 h was -2.95%.
With `Cc1cccc(CNC[C@H]2Cn3cc(-c4ccccc4)nc3CO2)n1`, the cytotoxicity at 70.5 h was -7.12%.
With `CN1CCC(N2CCOC[C@H](OCC(=O)N(C)C)C2)CC1`, the cytotoxicity at 70.5 h was 0.483%.
With `CC[C@H]1CN2CC[C@H]1C[C@@H]2CNCc1ccc2c(c1)OCO2`, the cytotoxicity at 70.5 h was -5.69%.
In the case of `O=C(c1cc(CC2(NC3CCCCC3)COC2)no1)N1CCCCC1`, the cytotoxicity at 70.5 h was 11.7%.
For the compound `CC(C)CS(=O)(=O)Nc1ccc([C@H]2OCC(=O)N[C@@H]2CO)cc1`, the cytotoxicity at 70.5 h is 0.34%.
On to `O=C(NC[C@H]1OC[C@@H](NC(=O)C2CCCC2)[C@@H]1O)c1ccncc1`, for which the cytotoxicity at 70.5 h was 13.7%.
Take `CC(C)N1CCN2C(=O)N(C3CCCCC3)C[C@H]2C1`: the cytotoxicity at 70.5 h amounted to 0.287%.
In the case of `COc1ccc(CNC[C@H]2Cn3ccnc3CO2)cn1`, the cytotoxicity at 70.5 h is -2.5%.
In the case of `O=C(O)C[C@@H]1CCN(C(=O)c2cccs2)C[C@@H]1CCN1CCCCC1` it was -3.9%; in that of `COCCN1CCN(C(=O)C[C@@H]2C[C@@H](C(C)C)[C@H](CO)C=C2C)CC1`, -3.05%.
For `CC[C@H]1CN(C(=O)c2cccnc2)CC[C@H]1CC(=O)NCCOC`, the cytotoxicity at 70.5 h was -1.87%.
`CC(C)(C)c1cn(C[C@H]2CC3CCN2C[C@@H]3C(=O)N2CCOCC2)nn1` (stereo partly drawn): the cytotoxicity at 70.5 h turned out to be 2.28%.
Consider `COCc1cn(C[C@H]2CC3CCN2C[C@@H]3C(=O)Nc2ccccc2)nn1` (stereo partly drawn), for which the cytotoxicity at 70.5 h was -6.64%.
As for `O=C(Nc1ccccc1)[C@H]1CN2CCC1C[C@@H]2Cn1cc(CO)nn1` (stereo partly drawn), the cytotoxicity at 70.5 h is -9.02%.
In the case of `CC[C@H]1CN2CC[C@H]1C[C@@H]2CNC(=O)c1ccco1` it was -1.78%.
For `CC[C@H]1CN2CC[C@H]1C[C@@H]2CNC(=O)Nc1cccc(C#N)c1`, the cytotoxicity at 70.5 h was 13.7%.
Consider `CC[C@H]1CN2CC[C@H]1C[C@@H]2CNC(=O)NC1CCCCC1`, for which the cytotoxicity at 70.5 h came to 4.29%.
In the case of `CC[C@H]1CN(C(=O)C2CC2)CC[C@H]1CC(=O)NCCN1CCOCC1`, the cytotoxicity at 70.5 h was -0.373%.
Take `COCC(=O)N1CCN(C(C)=O)C[C@@H]1C(=O)OC`: the cytotoxicity at 70.5 h is 12.2%.
Regarding `O=C(NC[C@H]1C[C@@H]2CCN1C[C@@H]2CN1CCCCC1)Nc1ccsc1`, the cytotoxicity at 70.5 h is -16%.
In the case of `O=C(NC[C@H]1C[C@@H]2CCN1C[C@@H]2CN1CCCCC1)c1ccco1` it was 0.157%.
`COCC(=O)NC[C@H]1C[C@@H]2CCN1C[C@@H]2CN(C)c1ccccc1`: the cytotoxicity at 70.5 h came out at 0.807%.
As for `CC[C@H]1CN(C(=O)C(C)(C)C)CC[C@H]1CC(=O)O`, the cytotoxicity at 70.5 h was 7.7%.
As to `COc1ncccc1CN1CCc2[nH]nc(C(=O)N(C)C)c2C1`, the cytotoxicity at 70.5 h was -11.3%.
Consider `Cc1cccc(CN2CCCC23CCNC3)n1` (stereo not drawn), for which the cytotoxicity at 70.5 h is 24.8%.
As to `COCCN1C[C@H]2CCN(C(=O)c3cc(C)on3)CC[C@H]2S1(=O)=O`, the cytotoxicity at 70.5 h is -5.47%.
Turning to `CN1CCN(Cc2cccnc2)C(=O)C12CCN(S(C)(=O)=O)CC2`, the cytotoxicity at 70.5 h was -5.92%.
Regarding `C[C@@H]1C[C@H]2CN(S(=O)(=O)c3ccc(F)cc3)C[C@H]2O1`, the cytotoxicity at 70.5 h was -4.41%.
In the case of `Cn1cccc1C(=O)N1C[C@H]2CN(Cc3cccnc3)C[C@H]2C1`, the cytotoxicity at 70.5 h is -1.49%.
With `COc1ccc(C[C@H]2CNCC[C@@H]2OCC2CC2)cc1`, the cytotoxicity at 70.5 h is -8.25%.
In the case of `CNC(=O)[C@@H](c1ccccc1)N1CCC[C@H]1C(=O)NC1CCCCC1` it was -2.47%; in that of `CNC(=O)[C@@H](c1ccccc1)N1CCC[C@H]1C(=O)NCc1ccccn1`, -6.43%.
For `O[C@@H]1C[C@@](CNCc2cccc(Cl)c2)(COc2cccnc2)C[C@@H]1O`, the cytotoxicity at 70.5 h was -2.94%.
In the case of `Cc1cccc(CN2C[C@@H](C)[C@@]3(CCN(CC(=O)N(C)C)C3=O)C2)c1` it was -10%; in that of `Cc1nn(C)c(C)c1S(=O)(=O)N1CC[C@@H]2O[C@@H](C)C[C@H]2C1`, -11.2%; in that of `CCN1CC[C@@]2(C(=O)N3CCOCC3)CCN(C(=O)C(C)C)CC[C@@H]12`, 18.4%.
On to `Cn1cccc1C(=O)N1C[C@H]2CN(Cc3cccc(F)c3)C[C@H]2C1`, for which the cytotoxicity at 70.5 h is -6.11%.
For the compound `CCN1C[C@@H]2[C@@H](OC)CCN(C(=O)Cc3ccsc3)[C@@H]2C1`, the cytotoxicity at 70.5 h is -5.4%.
In the case of `Cc1ccc(CN2CCC3(CC2)C(=O)Nc2ccccc23)s1` it was -7.74%; in that of `CN1C(=O)CC(c2ccccc2)C12CCN(CC1CCOCC1)CC2` (stereo not drawn), -6.6%.
